Experimental data from ChEMBL document CHEMBL1201862, “PubChem BioAssay data set” (2004).
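Dose response: 5 concentrations. Exposure: 48 h. Format: 96-well plates. Endpoint: linear interpolation; highest concentration if not reached. GI50 is the concentration that inhibits growth by half.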 Activity calls are given as the source filed them. No stated cut-off is given here; in the data, active = GI50 up to about 1.1 µM and inactive = higher. Where a SMILES comes first, the peptide text is derived from it. The star is where a group is joined. Cbz = O=C(OCc1ccccc1)*; NHNH2 = NN*

How the values were obtained:
Test in all cases: growth of human tumour cells (NCI), 48 h
MDA-MB-231 = system: MDA-MB-231
Hs-578T = system: Hs-578T
T47D = system: T47D
MDA-N = system: MDA-N
BT-549 = system: BT-549

Structure (SMILES)	GI50 (MDA-MB-231)	GI50 (Hs-578T)	GI50 (T47D)	GI50 (MDA-N)	GI50 (BT-549)
COc1cccc(-c2cc(=O)c3cc(N4CCCCC4)ccc3[nH]2)c1	0.0432 µM (active)	< 0.014 µM (active)	> 100 µM (inactive)	< 0.01 µM (active)	
CN(C)C(=O)OC1=CC2CCC(C1)N2C (stereo not drawn)	> 100 µM (inactive)	> 100 µM (inactive)	> 100 µM (inactive)	> 100 µM (inactive)	> 100 µM (inactive)
O=C1OC2(C(F)(F)F)Oc3ccccc3CN2C12CCCCC2 (stereo not drawn)	24.2 µM (inactive)		21.8 µM (inactive)	29.1 µM (inactive)	28.4 µM (inactive)
CC(C)(C)OC(=O)NCC(=O)N(CCc1ccc(Cl)c(Cl)c1)CCN1CCCC1	13.1 µM (inactive)	18.8 µM (inactive)	22.7 µM (inactive)	14.3 µM (inactive)	20 µM (inactive)
CCOC(O)(NC(=O)C(C(F)(F)F)C(F)(F)F)C(F)(F)F (stereo not drawn)		> 100 µM (inactive)	> 100 µM (inactive)	> 100 µM (inactive)	> 100 µM (inactive)
CCOC1=NC(C(F)(F)F)(C(F)(F)F)N=C(/N=C(/N)N(C)C(C(C)C)P(=O)(OC(C)C)OC(C)C)O1 (stereo not drawn)	> 100 µM (inactive)	61.4 µM (inactive)	52.7 µM (inactive)	> 100 µM (inactive)	40.6 µM (inactive)
Cc1cc2nc3c(N)nn(CCN(C)C)c3nc2cc1C	33.8 µM (inactive)	40.2 µM (inactive)	42.3 µM (inactive)	50.8 µM (inactive)	57.9 µM (inactive)
CC1=NN(c2nc(N)nc(CSCc3nc(N)nc(N(C)C)n3)n2)C(C)(C)C1	> 100 µM (inactive)	> 100 µM (inactive)	> 100 µM (inactive)		> 100 µM (inactive)
CSc1nc(-c2ccc(C)cc2)c(C#N)c(=O)[nH]1	> 100 µM (inactive)	> 100 µM (inactive)	40.5 µM (inactive)		> 100 µM (inactive)
CCCCNC(=O)Nc1c(C(N)=O)c2n(c1C(=O)OCC)CCCCC2	21.3 µM (inactive)	64.9 µM (inactive)	> 100 µM (inactive)		> 100 µM (inactive)
O=C(OCCN=c1c2ccccc2ccc2ccccc12)c1cc([N+](=O)[O-])cc([N+](=O)[O-])c1	> 100 µM (inactive)	> 100 µM (inactive)	> 100 µM (inactive)	> 100 µM (inactive)	25.8 µM (inactive)
C[C@]12C[C@@H](OC(=O)[C@]1(C)O)[C@@H]([C@]1(O)CC[C@H]3[C@@H]4C[C@H]5O[C@]56C[C@H]5O[C@H]5C(=O)[C@]6(C)[C@H]4CC[C@@]31C)C2	> 50 µM (inactive)	> 50 µM (inactive)	> 50 µM (inactive)	> 50 µM (inactive)	
NCCCC[C@H](N)C(=O)Nc1ccc(-c2nc3ccccc3s2)cc1Cl	11.6 µM (inactive)	16.3 µM (inactive)	< 0.0478 µM (active)	4.46 µM (inactive)	
O=c1c2c(F)c(F)c(F)c(F)c2sc2nccn12	20.3 µM (inactive)	31.3 µM (inactive)	0.745 µM (active)	14.4 µM (inactive)	
CSC(=S)N/N=C(\C)c1ccc(S(=O)(=O)N(C)c2ccccc2)cc1	98.4 µM (inactive)	15.5 µM (inactive)	66.5 µM (inactive)	30.3 µM (inactive)	
Cn1c2c(c3ccccc31)CC(=O)N1CCCC(C1)CC21OCCO1 (stereo not drawn)	> 100 µM (inactive)		> 100 µM (inactive)	33.5 µM (inactive)	> 100 µM (inactive)
CC(=O)O[C@H]1[C@@H](N2CCOCC2)C[C@H]2[C@@H]3CC=C4C[C@@H](N5CCCC5)CC[C@]4(C)[C@H]3CC[C@@]21C	> 100 µM (inactive)	> 100 µM (inactive)	> 100 µM (inactive)	> 100 µM (inactive)	> 100 µM (inactive)

Structure (SMILES)	GI50 (MDA-MB-231)	GI50 (Hs-578T)	GI50 (T47D)	GI50 (MDA-N)	GI50 (BT-549)
OCC1OC(n2nc(-c3ccccc3)nc2-c2cnccn2)C(O)C(O)C1O (stereo not drawn)	> 100 µM (inactive)		> 100 µM (inactive)	> 100 µM (inactive)	> 100 µM (inactive)
NS(=O)(=O)c1cc(C(=O)O)c(Cl)c([N+](=O)[O-])c1Cl	> 100 µM (inactive)	> 100 µM (inactive)	> 100 µM (inactive)	> 100 µM (inactive)	> 100 µM (inactive)
NNC(=O)c1ccc(OCc2nc3ccccc3[nH]2)cc1	> 100 µM (inactive)	28.1 µM (inactive)	53.7 µM (inactive)	> 100 µM (inactive)	52.2 µM (inactive)
C#C[C@]1(O)CC[C@H]2[C@@H]3CCC4=C/C(=N\OCCN5CCCCC5)CC[C@]4(C)[C@H]3CC[C@@]21C	13.9 µM (inactive)	3.53 µM (inactive)	2.69 µM (inactive)	1.66 µM (inactive)	5.89 µM (inactive)
CCCCn1c(C)c(C(=O)CC)c(C(=O)NCCN2CCN(c3ccccc3Cl)CC2)c1C	17.1 µM (inactive)	23.5 µM (inactive)	21.8 µM (inactive)	16.2 µM (inactive)	16 µM (inactive)
COc1cc(/C=C2\N=C(c3ccccc3)N(c3ccc(S(=O)(=O)Nc4nccs4)cc3)C2=O)ccc1O		> 100 µM (inactive)	85.5 µM (inactive)		73.6 µM (inactive)
CC(=O)C1(C(=O)C(=[N+]=[N-])S(=O)(=O)c2ccccc2)CC1	> 100 µM (inactive)	> 100 µM (inactive)		> 100 µM (inactive)	> 100 µM (inactive)
COC(=O)C[C@H](COCc1ccccc1)NC(=O)C[C@H](COCc1ccccc1)NC(=O)OC(C)(C)C	36.6 µM (inactive)	26.4 µM (inactive)	33.9 µM (inactive)		20.7 µM (inactive)
O=C(O)c1cc2cc(OCc3ccccc3)ccc2[nH]1	> 100 µM (inactive)	4.72 µM (inactive)	> 100 µM (inactive)	> 100 µM (inactive)	
O=c1[nH]nc(-c2ccccc2)n1/N=C/c1ccco1		> 100 µM (inactive)	> 100 µM (inactive)	> 100 µM (inactive)	32.6 µM (inactive)
Brc1cccc(C2(CCCC3(c4cccc(Br)n4)OCCO3)OCCO2)n1	> 100 µM (inactive)		> 100 µM (inactive)	> 100 µM (inactive)	> 100 µM (inactive)
CC(C)CNC(=O)Cn1c2c(c3ccccc31)CCCC2		50.8 µM (inactive)		54 µM (inactive)	> 100 µM (inactive)
NC1CNC(=O)c2c(Cl)sc(Cl)c21 (stereo not drawn)	> 100 µM (inactive)	> 100 µM (inactive)	> 100 µM (inactive)	> 100 µM (inactive)	
CCOC(=O)CCC(NC(=O)OCc1ccccc1)C(=O)NC(CCC(=O)OCC)C(=O)NN (stereo not drawn) (Cbz-Glu(OEt)-Glu(OEt)-NHNH2; configuration not given here)	> 100 µM (inactive)	> 100 µM (inactive)		> 100 µM (inactive)	> 100 µM (inactive)
COC(=O)c1c(C)[nH]c2c1cc(O)c1nc(C)c(C)nc12		45.9 µM (inactive)	47.3 µM (inactive)	> 100 µM (inactive)	> 100 µM (inactive)
O=C1NC(=O)C(C(CC(=O)c2ccc(Cl)cc2)c2ccc(Cl)cc2)C(=O)N1 (stereo not drawn)	> 100 µM (inactive)	> 100 µM (inactive)		92 µM (inactive)	> 100 µM (inactive)
COc1ccc(C2=C(OC(=O)N(C)C)c3cccn3-c3cc(Cl)ccc3S2)cc1	> 10 µM (inactive)		5.3 µM (inactive)	> 10 µM (inactive)	
